A value given as a limit tells only on which side of the number the result lay.

The subject of the experiment is HCV 1b-Con1 replicon. Kind of experiment: HCV 1b-Con1 replicon assay in the presence of 5% FBS. Type of experiment: cell-based. Conditions: Hepatitis C virus.
Broadly, the EC50 is the concentration at which the effect is half-maximal. As for `COC(=O)N[C@H](C(=O)N1CCC[C@H]1c1nc2cc([C@H]3CC[C@H](c4ccc5[nH]c([C@@H]6CCCN6C(=O)[C@@H](NC(=O)OC)C(C)(C)C)nc5c4)N3c3cc(F)c(N4CCC(c5ccccc5)CC4)c(F)c3)ccc2[nH]1)C(C)(C)C` [Example 5.4, methyl {(2S)-1-[(2S)-2-{5-[(2R,5R)-1-[3,5-difluoro-4-(4-phenylpiperidin-1-yl)phenyl]-5-{2-[(2S)-1-{(2S)-2-[(methoxycarbonyl)amino]-3,3-dimethylbutanoyl}pyrrolidin-2-yl]-1H-benzimidazol-5-yl}pyrrolidin-2-yl]-1H-benzimidazol-2-yl}pyrrolidin-1-yl]-3,3-dimethyl-1-oxobutan-2-yl}carbamate], the concentration for a half-maximal effect (EC50) was under 100 pM. For `COC(=O)N[C@H](C(=O)N1CCC[C@H]1c1nc2cc([C@H]3CC[C@H](c4ccc5[nH]c([C@@H]6CCCN6C(=O)[C@@H](NC(=O)OC)C6CCCCC6)nc5c4)N3c3cc(F)c(N4CCC(c5ccccc5)CC4)c(F)c3)ccc2[nH]1)C1CCCCC1` [Example 3.22, dimethyl ({(2R,5R)-1-[3,5-difluoro-4-(4-phenylpiperidin-1-yl)phenyl]pyrrolidine-2,5-diyl}bis{1H-benzimidazole-5,2-diyl(2S)pyrrolidine-2,1-diyl [(1S)-1-cyclohexyl-2-oxoethane-2,1-diyl]})biscarbamate] the value was under 100 pM; for `COC(=O)N[C@H](C(=O)N1CCC[C@H]1c1nc2cc([C@H]3CC[C@H](c4ccc5[nH]c([C@@H]6CCCN6C(=O)[C@@H](NC(=O)OC)C6CCOCC6)nc5c4)N3c3cc(F)c(N4CCC(C)(C)CC4)c(F)c3)ccc2[nH]1)C1CCOCC1` [Example 4.23, dimethyl ({(2R,5R)-1-[4-(4,4-dimethylpiperidin-1-yl)-3,5-difluorophenyl]pyrrolidine-2,5-diyl}bis{1H-benzimidazole-5,2-diyl(2S)pyrrolidine-2,1-diyl[(1S)-2-oxo-1-(tetrahydro-2H-pyran-4-yl)ethane-2,1-diyl]})biscarbamate], under 100 pM. For `COC(=O)N[C@H](C(=O)N1CCC[C@H]1c1nc2c(Cl)c([C@H]3CC[C@H](c4ccc5[nH]c([C@@H]6CCCN6C(=O)[C@@H](NC(=O)OC)C(C)C)nc5c4Cl)N3c3ccc(C(C)(C)C)cc3)ccc2[nH]1)C(C)C` [Example 6.5, methyl {(2S)-1-[(2S)-2-{5-[(2R,5R)-1-(4-tert-butylphenyl)-5-{4-chloro-2-[(2S)-1-{(2S)-2-[(methoxycarbonyl)amino]-3-methylbutanoyl}pyrrolidin-2-yl]-1H-benzimidazol-5-yl}pyrrolidin-2-yl]-4-chloro-1H-benzimidazol-2-yl}pyrrolidin-1-yl]-3-methyl-1-oxobutan-2-yl}carbamate], the EC50 is under 100 pM.

Consider `COC(=O)N[C@H](C(=O)N1CCC[C@H]1c1nc2cc([C@H]3CC[C@H](c4ccc5[nH]c([C@@H]6CCCN6C(=O)[C@@H](NC(=O)OC)C(C)C)nc5c4)N3c3cc(F)c(N4CCC5(CC4)CC5)c(F)c3)ccc2[nH]1)C(C)C` [Example 5.11, methyl {(2S)-1-[(2S)-2-{5-[(2R,5R)-1-[4-(6-azaspiro[2.5]oct-6-yl)-3,5-difluorophenyl]-5-{2-[(2S)-1-{(2S)-2-[(methoxycarbonyl)amino]-3-methylbutanoyl}pyrrolidin-2-yl]-1H-benzimidazol-5-yl}pyrrolidin-2-yl]-1H-benzimidazol-2-yl}pyrrolidin-1-yl]-3-methyl-1-oxobutan-2-yl}carbamate], for which the EC50 is under 100 pM. As for `COC(=O)N[C@H](C(=O)N1CCC[C@H]1c1nc2cc([C@H]3CC[C@@H](c4cc5nc([C@@H]6CCCN6C(=O)[C@@H](NC(=O)OC)C(C)C)[nH]c5cc4F)N3c3cnc(N4CCCCC4)nc3)c(F)cc2[nH]1)C(C)C` [Example 3.47, methyl {(2S)-1-[(2S)-2-(6-fluoro-5-{(2R,5S)-5-{6-fluoro-2-[(2S)-1-{(2S)-2-[(methoxycarbonyl)amino]-3-methylbutanoyl}pyrrolidin-2-yl]-1H-benzimidazol-5-yl}-1-[2-(piperidin-1-yl)pyrimidin-5-yl]pyrrolidin-2-yl}-1H-benzimidazol-2-yl)pyrrolidin-1-yl]-3-methyl-1-oxobutan-2-yl}carbamate], the EC50 is under 100 pM.

For the compound `COC(=O)N[C@H](C(=O)N1[C@H](c2nc3cc([C@H]4CC[C@H](c5ccc6[nH]c([C@@H]7C[C@@H]8CCC[C@@H]8N7C(=O)[C@@H](NC(=O)OC)C7CCOCC7)nc6c5)N4c4cc(F)c(N5CCCCC5)c(F)c4)ccc3[nH]2)C[C@@H]2CCC[C@@H]21)C(C)C` [Example 10.1, methyl [(1S)-2-[(2S,3aS,6aS)-2-{5-[(2R,5R)-1-[3,5-difluoro-4-(piperidin-1-yl)phenyl]-5-{2[(2S,3aS,6aS)-1-{(2S)-2-[(methoxycarbonyl)amino]-3-methylbutanoyl}octahydrocyclopenta[b]pyrrol-2-yl]-1H-benzimidazol-5-yl}pyrrolidin-2-yl]-1H-benzimidazol-2-yl}hexahydrocyclopenta[b]pyrrol-1(2H)-yl]-2-oxo-1-(tetrahydro-2H-pyran-4-yl)ethyl]carbamate], the 50% effective concentration (EC50) is under 100 pM.

For the compound `COC(=O)N[C@H](C(=O)N1CCC[C@H]1c1nc(-c2ccc(-c3ccn(-c4ccc(-c5c[nH]c([C@@H]6CCCN6C(=O)[C@@H](NC(=O)OC)C(C)C)n5)cc4)c3-c3ccc(C(C)(C)C)cc3)cc2)c[nH]1)C(C)C` [Example 7.1, methyl {(2S)-1-[(2S)-2-(4-{4-[2-(4-tert-butylphenyl)-1-(4-{2-[(2S)-1-{(2S)-2-[(methoxycarbonyl)amino]-3-methylbutanoyl}pyrrolidin-2-yl]-1H-imidazol-4-yl}phenyl)-1H-pyrrol-3-yl]phenyl}-1H-imidazol-2-yl)pyrrolidin-1-yl]-3-methyl-1-oxobutan-2-yl}carbamate], the EC50 is under 100 pM.

Take `COC(=O)N[C@H](C(=O)N1CCC[C@H]1c1nc2cc([C@H]3CC[C@H](c4cc5nc([C@@H]6CCCN6C(=O)[C@@H](NC(=O)OC)C(C)C)[nH]c5cc4F)N3c3cc(F)c(N4CCN(c5ccc(C(F)(F)F)cc5)CC4)c(F)c3)c(F)cc2[nH]1)C(C)C` [Example 4.42, methyl {(2S)-1-[(2S)-2-{5-[(2R,5R)-1-(3,5-difluoro-4-{4-[4-(trifluoromethyl)phenyl]piperazin-1-yl}phenyl)-5-{6-fluoro-2-[(2S)-1-{(2S)-2-[(methoxycarbonyl)amino]-3-methylbutanoyl}pyrrolidin-2-yl]-1H-benzimidazol-5-yl}pyrrolidin-2-yl]-6-fluoro-1H-benzimidazol-2-yl}pyrrolidin-1-yl]-3-methyl-1-oxobutan-2-yl}carbamate]: the EC50 was under 100 pM. For `COC(=O)N[C@H](C(=O)N1CCC[C@H]1c1nc2cc([C@H]3CC[C@H](c4cc5nc([C@@H]6CCCN6C(=O)[C@@H](NC(=O)OC)C6CCOCC6)[nH]c5cc4F)N3c3cc(F)c(N4CCC(C(C)(C)C)CC4)c(F)c3)c(F)cc2[nH]1)C1CCOCC1` [Example 6.14, dimethyl ({(2R,5R)-1-[4-(4-tert-butylpiperidin-1-yl)-3,5-difluorophenyl]pyrrolidine-2,5-diyl}bis{(6-fluoro-1H-benzimidazole-5,2-diyl)(2S)pyrrolidine-2,1-diyl [(1S)-2-oxo-1-(tetrahydro-2H-pyran-4-yl)ethane-2,1-diyl]}) biscarbamate], the concentration for a half-maximal effect (EC50) is under 100 pM.

The record behind these values is patent US20120220562A1, “Anti-Viral Compounds” (ABBOTT LABAORATORIES, priority 2011, published 2012).
